Data published in patent US6737383B1, “Herbicidal oxadiazolidines” (priority 1999, dated 2004).

Columns and labels:
bedstraw = test: Test B pre/postemergence bedstraw; format: in vivo, Galium aparine
In short: (§1)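 Herbicidal effect was estimated by eye on a ten-point control scale after plants spent twelve to sixteen days in a greenhouse following soil or foliar treatment. Foliar sprays targeted plants at one to four leaves; all doses were formulated in a non-phytotoxic solvent with surfactant.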

blackgrass = test: Test B pre/postemergence blackgrass; format: in vivo, Alopecurus myosuroides
In short: as §1

surinam grass = test: Test B pre/postemergence surinam grass; format: in vivo, Brachiaria decumbens
In short: as §1

cocklebur = test: Test B pre/postemergence cocklebur; format: in vivo, Xanthium strumarium
In short: as §1

corn = test: Test B pre/postemergence corn; format: in vivo, Zea mays
In short: as §1

giant foxtail = test: Test B pre/postemergence giant foxtail; format: in vivo, Setaria faberii
In short: as §1

morningglory = test: Test B pre/postemergence morningglory; format: in vivo, Ipomoea hederacea
In short: as §1

pigweed = test: Test B pre/postemergence pigweed; format: in vivo, Amaranthus retroflexus
In short: as §1

rape = test: Test B pre/postemergence rape; format: in vivo, Brassica napus
In short: as §1

soybean = test: Test B pre/postemergence soybean; format: in vivo, Glycine max
In short: as §1

sugar beet = test: Test B pre/postemergence sugar beet; format: in vivo, Beta vulgaris; conditions: for Plant response rating, Sugarbeets: Rate 250 g/ha
In short: as §1

velvetleaf = test: Test B pre/postemergence velvetleaf; format: in vivo, Abutilon theophrasti; conditions: for Plant response rating, Velvetleaf: Rate 250 g/ha
In short: as §1

wheat = test: Test B pre/postemergence wheat; format: in vivo, Triticum aestivum; conditions: for Plant response rating, Wheat: Rate 250 g/ha
In short: as §1

wild oat = test: Test B pre/postemergence wild oat; format: in vivo, Avena fatua; conditions: for Plant response rating, Wild oats: Rate 250 g/ha
In short: as §1

rice = test: Test B flood test rice; format: in vivo, Oryza sativa
In short: (§2)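 Each value is a visual injury score relative to controls, with 10 meaning complete control and 0 no effect. Evaluation took place twelve to sixteen days after the 2-leaf-stage plants were treated and kept in the greenhouse.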

smallflower flatsedge = test: Test B flood test smallflower flatsedge; format: in vivo, Cyperus difformis
In short: as §2

[1] = Postemergence, Rate 250 g/ha, scale 0 to 10, 0 no effect, 10 complete control
[2] = Preemergence, Rate 62 g/ha, scale 0 to 10 (0 no effect, 10 complete control)
[3] = Preemergence, Rate 125 g/ha, scale 0 to 10 (0 no effect, 10 complete control)
[4] = Preemergence, Rate 250 g/ha, scale of 0 to 10 where 0 is no effect and 10 is complete control
[5] = Preemergence, Rate 500 g/ha, scale 0 to 10 (0 no effect, 10 complete control)
[6] = Postemergence, Rate 125 g/ha, scale of 0 to 10 where 0 is no effect and 10 is complete control
[7] = Rate 62 g/ha, Postemergence, scale of 0 to 10 where 0 is no effect and 10 is complete control
[8] = Rate 500 g/ha, Postemergence, scale 0 to 10, 0 no effect, 10 complete control
[9] = Rate 250 g/ha, Postemergence, scale 0 to 10, 0 is no effect, 10 is complete control
[10] = Preemergence, Rate 125 g/ha, 0 is no effect, 10 is complete control
[11] = Preemergence, scale of 0 to 10 where 0 is no effect and 10 is complete control
[12] = Postemergence, scale 0 to 10, 0 is no effect, 10 is complete control
[13] = Rate 250 g/ha, headed Pre-emergence (flood test species), scale 0 to 10 (0 no effect, 10 complete control)
[14] = Rate 500 g/ha, headed Pre-emergence (flood test species), scale 0 to 10 (0 no effect, 10 complete control)
[15] = Rate 2000 g/ha, Pre-emergence (as headed), scale 0 to 10

For `CC(C)N(C(=O)n1oc(=O)n(Cc2cccs2)c1=O)c1ccccc1` [Compound 103], the “Bedstraw plant response rating” value (bedstraw; [1]) was 0, the “Bedstraw plant response rating” value (bedstraw; [2]) was 0 and the “Plant response rating, Bedstraw” value (bedstraw; [3]) was 0. The “Plant response rating, Bedstraw” value (bedstraw; [4]) was 0, the “Bedstraw plant response rating” value (bedstraw; [5]) was 0 and the “Blackgrass plant response rating” value (blackgrass; [6]) was 1. For the same compound, the “Blackgrass plant response rating” value (blackgrass; [1]) was 4, the “Blackgrass plant response rating” value (blackgrass; [2]) was 0 and the “Plant response rating, Blackgrass” value (blackgrass; [3]) was 0. For the same compound, the “Plant response rating, Blackgrass” value (blackgrass; [4]) was 3, the “Blackgrass plant response rating” value (blackgrass; [5]) was 5 and the “Blackgrass plant response rating” value (blackgrass; [7]) was 0. For the same compound, the “Blackgrass plant response rating” value (blackgrass; [8]) was 4, the “B. signalgrass plant response rating” value (surinam grass; Postemergence, Rate 62 g/ha, scale 0 to 10, 0 is no effect, 10 is complete control) was 0 and the “B. signalgrass plant response rating” value (surinam grass; [1]) was 0. The “B. signalgrass plant response rating” value (surinam grass; [2]) was 1, the “Plant response rating, B. signalgrass” value (surinam grass; [3]) was 5 and the “Plant response rating, B. signalgrass” value (surinam grass; [4]) was 7. The “B. signalgrass plant response rating” value (surinam grass; [5]) was 7, the “B. signalgrass plant response rating” value (surinam grass; Rate 125 g/ha, Postemergence, scale 0 to 10, 0 no effect, 10 complete control) was 0 and the “B. signalgrass plant response rating” value (surinam grass; Rate 500 g/ha, Postemergence, scale of 0 to 10 where 0 is no effect and 10 is complete control) was 2. The “Cocklebur plant response rating” value (cocklebur; [6]) was 0, the “Cocklebur plant response rating” value (cocklebur; [1]) was 0 and the “Cocklebur plant response rating” value (cocklebur; [2]) was 0. For the same compound, the “Plant response rating, Cocklebur” value (cocklebur; [3]) was 0, the “Cocklebur plant response rating” value (cocklebur; [5]) was 0 and the “Cocklebur plant response rating” value (cocklebur; [7]) was 0. For the same compound, the “Cocklebur plant response rating” value (cocklebur; [8]) was 0, the “Corn plant response rating” value (corn; [6]) was 0 and the “Corn plant response rating” value (corn; [1]) was 0. The “Corn plant response rating” value (corn; [2]) was 0, the “Plant response rating, Corn” value (corn; [3]) was 0 and the “Plant response rating, Corn” value (corn; [4]) was 0. For the same compound, the “Corn plant response rating” value (corn; [5]) was 0, the “Corn plant response rating” value (corn; [7]) was 0 and the “Corn plant response rating” value (corn; [8]) was 2. For the same compound, the “Giant foxtail plant response rating” value (giant foxtail; [6]) was 1, the “Giant foxtail plant response rating” value (giant foxtail; [1]) was 3 and the “Giant foxtail plant response rating” value (giant foxtail; [2]) was 8. The “Plant response rating, Giant foxtail” value (giant foxtail; [3]) was 9, the “Plant response rating, Giant foxtail” value (giant foxtail; [4]) was 9 and the “Giant foxtail plant response rating” value (giant foxtail; [5]) was 9. For the same compound, the “Giant foxtail plant response rating” value (giant foxtail; [7]) was 0, the “Giant foxtail plant response rating” value (giant foxtail; [8]) was 7 and the “Morningglory plant response rating” value (morningglory; [6]) was 10. For the same compound, the “Morningglory plant response rating” value (morningglory; [1]) was 10, the “Morningglory plant response rating” value (morningglory; [2]) was 0 and the “Plant response rating, Morningglory” value (morningglory; [3]) was 0. The “Plant response rating, Morningglory” value (morningglory; [4]) was 0, the “Morningglory plant response rating” value (morningglory; [5]) was 0 and the “Morningglory plant response rating” value (morningglory; [7]) was 8. The “Morningglory plant response rating” value (morningglory; [8]) was 10, the “Redroot pigweed plant response rating” value (pigweed; [6]) was 0 and the “Redroot pigweed plant response rating” value (pigweed; [2]) was 0. For the same compound, the “Plant response rating, Redroot pigweed” value (pigweed; [3]) was 0, the “Plant response rating, Redroot pigweed” value (pigweed; [4]) was 6 and the “Redroot pigweed plant response rating” value (pigweed; [5]) was 7. For the same compound, the “Redroot pigweed plant response rating” value (pigweed; [7]) was 0, the “Plant response rating, Redroot pigweed” value (pigweed; [9]) was 2 and the “Redroot pigweed plant response rating” value (pigweed; [8]) was 4. The “Rape plant response rating” value (rape; [6]) was 0, the “Rape plant response rating” value (rape; [1]) was 1 and the “Rape plant response rating” value (rape; [2]) was 0. The “Plant response rating, Rape” value (rape; [3]) was 0, the “Plant response rating, Rape” value (rape; [4]) was 0 and the “Rape plant response rating” value (rape; [5]) was 0. For the same compound, the “Rape plant response rating” value (rape; [7]) was 0, the “Rape plant response rating” value (rape; [8]) was 3 and the “Soybean plant response rating” value (soybean; [6]) was 4. The “Soybean plant response rating” value (soybean; [2]) was 0, the “Plant response rating, Soybean” value (soybean; [3]) was 0 and the “Plant response rating, Soybean” value (soybean; [4]) was 0. The “Soybean plant response rating” value (soybean; [5]) was 0, the “Soybean plant response rating” value (soybean; [7]) was 4 and the “Plant response rating, Soybean” value (soybean; [9]) was 4. For the same compound, the “Soybean plant response rating” value (soybean; [8]) was 6, the “Sugarbeets plant response rating” value (sugar beet; [6]) was 2 and the “Sugarbeets plant response rating” value (sugar beet; [2]) was 0. The “Sugarbeets plant response rating (0 to 10 scale)” value (sugar beet; [10]) was 0, the “Plant response rating, Sugarbeets” value (sugar beet; [11]) was 0 and the “Sugarbeets plant response rating” value (sugar beet; [5]) was 4. For the same compound, the “Sugarbeets plant response rating” value (sugar beet; [7]) was 1, the “Plant response rating, Sugarbeets” value (sugar beet; [12]) was 2 and the “Sugarbeets plant response rating” value (sugar beet; [8]) was 3. The “Velvetleaf plant response rating” value (velvetleaf; [6]) was 0, the “Velvetleaf plant response rating” value (velvetleaf; [2]) was 0 and the “Velvetleaf plant response rating (0 to 10 scale)” value (velvetleaf; [10]) was 0. For the same compound, the “Plant response rating, Velvetleaf” value (velvetleaf; [11]) was 3, the “Velvetleaf plant response rating” value (velvetleaf; [5]) was 3 and the “Velvetleaf plant response rating” value (velvetleaf; [7]) was 0. For the same compound, the “Plant response rating, Velvetleaf” value (velvetleaf; [12]) was 1, the “Velvetleaf plant response rating” value (velvetleaf; [8]) was 4 and the “Wheat plant response rating” value (wheat; [6]) was 0. For the same compound, the “Wheat plant response rating” value (wheat; [2]) was 0, the “Wheat plant response rating (0 to 10 scale)” value (wheat; [10]) was 0 and the “Plant response rating, Wheat” value (wheat; [11]) was 0. The “Wheat plant response rating” value (wheat; [5]) was 2, the “Wheat plant response rating” value (wheat; [7]) was 0 and the “Plant response rating, Wheat” value (wheat; [12]) was 0. The “Wheat plant response rating” value (wheat; [8]) was 0, the “Wild oats plant response rating” value (wild oat; [6]) was 0 and the “Wild oats plant response rating” value (wild oat; [2]) was 0. For the same compound, the “Wild oats plant response rating (0 to 10 scale)” value (wild oat; [10]) was 0, the “Plant response rating, Wild oats” value (wild oat; [11]) was 3 and the “Wild oats plant response rating” value (wild oat; [5]) was 6. For the same compound, the “Wild oats plant response rating” value (wild oat; [7]) was 0, the “Plant response rating, Wild oats” value (wild oat; [12]) was 0 and the “Wild oats plant response rating” value (wild oat; [8]) was 0. For the same compound, the “Rice plant response rating” value (rice; [13]) was 0, the “Plant response rating, Rice” value (rice; [14]) was 0 and the “Rice plant response rating” value (rice; Rate 1000 g/ha, Pre-emergence (as headed), scale 0 to 10) was 0. For the same compound, the “Rice plant response rating” value (rice; [15]) was 0, the “S. Flatsedge plant response rating” value (smallflower flatsedge; Pre-emergence, Rate 1000 g/ha, scale 0 to 10 (0 no effect, 10 complete control)) was 0 and the “S. Flatsedge plant response rating” value (smallflower flatsedge; [13]) was 0. For the same compound, the “Plant response rating, S. Flatsedge” value (smallflower flatsedge; [14]) was 0 and the “S. Flatsedge plant response rating” value (smallflower flatsedge; [15]) was 0.
